The source of these data is PubChem BioAssay AID248 (DTP/NCI, 2004).

Molecules are shown by their SMILES. Where “and” joins values, the source holds several entries; their conditions need not be identical. Identical values can stand only once. Toxic doses and inconclusive results are not listed.

The assay has as its system L1210 leukemia ip in BDF1 mice, survival T/C. Kind of assay: NCI In Vivo Anticancer Drug Screen. Data for tumor model L1210 Leukemia (intraperitoneal) in B6D2F1 (BDF1) mice. As to conditions: endpoint: mean survival time, higher = longer survival. The method in brief:
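Mice bearing the transplanted tumor received compound or vehicle. Survival of the treated group was divided by that of the vehicle-treated control group to give the ratio.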

The mark [1] stands for this setting: dose: 50.0 mg/kg/injection, schedule: Q01DX001 (ip), vehicle: saline.
[2] abbreviates: dose: 100.0 mg/kg/injection, schedule: Q01DX001 (ip), vehicle: saline.
Where [3] appears, read: dose: 200.0 mg/kg/injection, schedule: Q01DX001 (ip), vehicle: saline.
[4] abbreviates: dose: 400.0 mg/kg/injection, schedule: Q01DX001 (ip), vehicle: saline.
Setting [5] is: dose: 25.0 mg/kg/injection, schedule: Q01DX009 (ip), vehicle: saline.
Setting [6] is: dose: 50.0 mg/kg/injection, schedule: Q01DX009 (ip), vehicle: saline.
Where [7] appears, read: dose: 100.0 mg/kg/injection, schedule: Q01DX009 (ip), vehicle: saline with Tween-80.
The mark [8] stands for this setting: dose: 100.0 mg/kg/injection, schedule: Q04DX003 (ip), vehicle: saline with Tween-80.
[9] abbreviates: dose: 200.0 mg/kg/injection, schedule: Q04DX003 (ip), vehicle: saline with Tween-80.
The mark [10] stands for this setting: dose: 400.0 mg/kg/injection, schedule: Q01DX009 (ip), vehicle: saline with Tween-80.
[11] abbreviates: dose: 400.0 mg/kg/injection, schedule: Q04DX003 (ip), vehicle: saline with Tween-80.
[12] abbreviates: dose: 100.0 mg/kg/injection, schedule: Q04DX003 (ip), vehicle: Klucel (hydroxypropylcellulose) (HPC).
Where [13] appears, read: dose: 200.0 mg/kg/injection, schedule: Q04DX003 (ip), vehicle: Klucel (hydroxypropylcellulose) (HPC).
The mark [14] stands for this setting: dose: 400.0 mg/kg/injection, schedule: Q04DX003 (ip), vehicle: Klucel (hydroxypropylcellulose) (HPC).

For `c1cc[c]([Sn]([c]2ccccc2)([c]2ccccc2)[n]2nnc3ccccc32)cc1`, the T/C is, setting by setting: (dose: 6.25 mg/kg/injection, schedule: Q04DX002 (ip), vehicle: saline with Tween-80) 96 % of control; (dose: 12.5 mg/kg/injection, schedule: Q04DX002 (ip), vehicle: saline with Tween-80) 101 % of control; (dose: 25.0 mg/kg/injection, schedule: Q04DX002 (ip), vehicle: saline with Tween-80) 101 % of control.
As to `CN(C)c1ccc(/C=C\C=N\NC(=O)CCCC(=O)N/N=C/C=C/c2ccc(N(C)C)cc2)cc1`, the T/C was 96 % of control under setting [1], 96 % of control under setting [2], 96 % of control under setting [3] and 90 % of control under setting [4].
`CCOC(=O)C(C)NC(=O)C(CSC(c1ccccc1)(c1ccccc1)c1ccccc1)NC(c1ccccc1)(c1ccccc1)c1ccccc1` (stereo unspecified): the T/C is, setting by setting: under setting [5], 98 % of control; under setting [6], 103 % of control; (dose: 100.0 mg/kg/injection, schedule: Q01DX009 (ip), vehicle: saline) 92 % of control; (dose: 200.0 mg/kg/injection, schedule: Q01DX009 (ip), vehicle: saline) 93 % of control; (dose: 400.0 mg/kg/injection, schedule: Q01DX009 (ip), vehicle: saline) 98 % of control.
For `CC(=O)Nc1nc2ncc(C=Nc3cncnc3)nc2c(=O)[nH]1`, the T/C by setting is: (dose: 100.0 mg/kg/injection, schedule: Q01DX001 (ip), vehicle: alkali diluted with saline) 108 % of control; (dose: 200.0 mg/kg/injection, schedule: Q01DX001 (ip), vehicle: alkali diluted with saline) 94 % of control; (dose: 400.0 mg/kg/injection, schedule: Q01DX001 (ip), vehicle: alkali diluted with saline) 92 % of control.
In the case of `CCCC1(c2ccccc2)C(C#N)C(=O)NC(=O)C1C#N` (stereo unspecified), the T/C is 101 % of control under setting [2] and 97 % of control under setting [3].
In the case of `CC(C)CC(C)OC(C[N+](=O)[O-])C(Cl)(Cl)Cl` (stereo unspecified), the T/C under setting [7] was 93 % of control; the T/C under setting [8] is 106 % of control; the T/C under setting [9] is 104 % of control; the T/C under setting [10] was 93 % of control; the T/C under setting [11] was 98 % of control.
In the case of `CC(C)(C)/C([O-])=N/[N+](C)(C)Cc1ccccc1`, the T/C by setting is: under setting [2], 97 % of control; under setting [3], 98 % of control; under setting [4], 98 % of control.
For the molecule `CC(C)(C)/[N+]([O-])=[N+](\[O-])C(C)(C)C` (tested in a mixture with another compound), the T/C runs as follows: under setting [7], 98 % of control; under setting [12], 100 % of control; (dose: 200.0 mg/kg/injection, schedule: Q01DX009 (ip), vehicle: saline with Tween-80) 105 % of control; under setting [13], 96 % of control; under setting [10], 90 % of control.
For `CC(C)(C#N)c1ccnc2ccccc12`, the T/C is 89 % of control (dose: 12.5 mg/kg/injection, schedule: Q01DX009 (ip), vehicle: Klucel (hydroxypropylcellulose) (HPC)); 100 % of control (dose: 25.0 mg/kg/injection, schedule: Q01DX009 (ip), vehicle: Klucel (hydroxypropylcellulose) (HPC)); 104 % of control (dose: 25.0 mg/kg/injection, schedule: Q04DX003 (ip), vehicle: Klucel (hydroxypropylcellulose) (HPC)); 96 % of control (dose: 50.0 mg/kg/injection, schedule: Q04DX003 (ip), vehicle: Klucel (hydroxypropylcellulose) (HPC)); 96 % of control under setting [12].
On to `O=S1(=O)CC2(N3CCCCC3)CCCCC21` (stereo unspecified), for which the T/C was 94 % of control (dose: 5.0 mg/kg/injection, schedule: Q01DX009 (ip), vehicle: saline) and 96 % of control (dose: 10.0 mg/kg/injection, schedule: Q01DX009 (ip), vehicle: saline).
Regarding `COc1ccc(/C=N/NC(=O)c2ccc(N=NN(C)C)cc2)c(OC)c1`, the T/C by setting is: (dose: 75.0 mg/kg/injection, schedule: Q04DX003 (ip), vehicle: Klucel (hydroxypropylcellulose) (HPC)) 104 % of control; (dose: 150.0 mg/kg/injection, schedule: Q04DX003 (ip), vehicle: Klucel (hydroxypropylcellulose) (HPC)) 97 % of control; (dose: 300.0 mg/kg/injection, schedule: Q04DX003 (ip), vehicle: Klucel (hydroxypropylcellulose) (HPC)) 99 % of control.
For the molecule `CC(C)=CCC/C(C)=C/COC(=O)C(CC=C(C)C)CCN1CCN(C)CC1` (stereo unspecified), the T/C under setting [12] is 104 % of control, the T/C under setting [13] was 93 % of control and the T/C under setting [14] is 104 % of control.
`BrC(Br)c1ccc(C(Br)Br)cc1`: the T/C is 94 % of control under setting [8], 100 % of control under setting [9] and 94 % of control under setting [11].
For `CCOC(=O)C1CC(C)c2[nH]c3ccccc3c21` (stereo unspecified), the T/C is 110 % of control (dose: 100.0 mg/kg/injection, schedule: Q04DX002 (ip), vehicle: Klucel (hydroxypropylcellulose) (HPC)); 107 % of control (dose: 200.0 mg/kg/injection, schedule: Q04DX002 (ip), vehicle: Klucel (hydroxypropylcellulose) (HPC)); 89 % of control (dose: 400.0 mg/kg/injection, schedule: Q04DX002 (ip), vehicle: Klucel (hydroxypropylcellulose) (HPC)).
Regarding `Cc1cccc(Cl)c1NC(=O)NCCCl`, the T/C reads like this: under setting [12], 94 % of control; under setting [13], 92 % of control; under setting [14], 94 % of control.
On to `C[n+]1ccc(Nc2ccc(NC(=O)c3ccc(Nc4cc[n+](C)c5ccc([N+](=O)[O-])cc45)cc3[N+](=O)[O-])cc2)cc1`, for which the T/C was 112 % of control (dose: 12.5 mg/kg/injection, schedule: Q01DX009 (ip), vehicle: saline); 105 % of control (dose: 25.0 mg/kg/injection, schedule: Q01DX001 (ip), vehicle: saline); 117 % of control under setting [5]; 111 % of control (dose: 25.0 mg/kg/injection, schedule: Q04DX003 (ip), vehicle: suspension in saline); 98 % of control under setting [1]; 120 % of control under setting [6]. Besides, the T/C was 116 % of control (dose: 50.0 mg/kg/injection, schedule: Q04DX003 (ip), vehicle: suspension in saline); 105 % of control under setting [2]; 114 % of control (dose: 100.0 mg/kg/injection, schedule: Q01DX001 (ip), vehicle: suspension in saline); 105 % of control and 104 % of control (dose: 100.0 mg/kg/injection, schedule: Q04DX003 (ip), vehicle: saline); 120 % of control and 123 % of control (dose: 200.0 mg/kg/injection, schedule: Q04DX003 (ip), vehicle: saline); 190 % of control and 203 % of control (dose: 200.0 mg/kg/injection, schedule: Q04DX003 (ip), vehicle: suspension in saline). Further, the T/C (dose: 400.0 mg/kg/injection, schedule: Q01DX001 (ip), vehicle: suspension in saline) is 173 % of control and 206 % of control; the T/C (dose: 400.0 mg/kg/injection, schedule: Q04DX003 (ip), vehicle: suspension in saline) was 90 % of control; the T/C (dose: 600.0 mg/kg/injection, schedule: Q04DX003 (ip), vehicle: saline) was 119 % of control; the T/C (dose: 800.0 mg/kg/injection, schedule: Q04DX002 (ip), vehicle: saline) is 102 % of control and 108 % of control.
Regarding `CSc1ncnc2c1ncn2NC(C)=O`, the T/C reads like this: (dose: 88.0 mg/kg/injection, schedule: Q01DX009 (ip), vehicle: other) 107 % of control; (dose: 100.0 mg/kg/injection, schedule: Q01DX001 (ip), vehicle: other) 98 % of control; (dose: 134.0 mg/kg/injection, schedule: Q01DX009 (ip), vehicle: other) 104 % of control; (dose: 200.0 mg/kg/injection, schedule: Q01DX001 (ip), vehicle: other) 104 % of control; (dose: 200.0 mg/kg/injection, schedule: Q01DX009 (ip), vehicle: other) 113 % of control; (dose: 300.0 mg/kg/injection, schedule: Q01DX009 (ip), vehicle: other) 120 % of control. Moreover, for the setting “dose: 400.0 mg/kg/injection, schedule: Q01DX001 (ip), vehicle: other”, the T/C is 112 % of control.
Regarding `CNc1ccccc1C#N`, the T/C reads like this: (dose: 100.0 mg/kg/injection, schedule: Q01DX009 (ip), vehicle: Klucel (hydroxypropylcellulose) (HPC)) 102 % of control; under setting [12], 93 % of control; (dose: 200.0 mg/kg/injection, schedule: Q01DX009 (ip), vehicle: Klucel (hydroxypropylcellulose) (HPC)) 98 % of control; under setting [13], 95 % of control; (dose: 400.0 mg/kg/injection, schedule: Q01DX009 (ip), vehicle: Klucel (hydroxypropylcellulose) (HPC)) 109 % of control; under setting [14], 97 % of control.
